Measured values reported in PubChem BioAssay (NCI).
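Method: 48-hour compound exposure of cells in 96-well plates, five concentrations, linear interpolation of endpoints. GI50: concentration for 50% inhibition of growth. TGI: concentration producing complete growth inhibition.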 Where a SMILES comes first, the peptide text is derived from it. The star is where a group is joined. Boc = CC(C)(C)OC(=O)*; OBn = c1ccc(CO*)cc1

Columns and labels:
Test in all cases: NCI tumour cell line growth inhibition, 48 h
IGROV1 ovarian = tested on: IGROV1 ovarian
ACHN renal = tested on: ACHN renal
SK-OV-3 ovarian = tested on: SK-OV-3 ovarian
786-0 renal = tested on: 786-0 renal
SF-295 CNS = tested on: SF-295 CNS
OVCAR-3 ovarian = tested on: OVCAR-3 ovarian
SK-MEL-2 melanoma = tested on: SK-MEL-2 melanoma
SW-620 colon = tested on: SW-620 colon
M14 melanoma = tested on: M14 melanoma
HCC-2998 colon = tested on: HCC-2998 colon
UACC-257 melanoma = tested on: UACC-257 melanoma

SMILES | TGI (IGROV1 ovarian) [µM] | TGI (ACHN renal) [µM] | TGI (SK-OV-3 ovarian) [µM] | TGI (786-0 renal) [µM] | TGI (SF-295 CNS) [µM] | TGI (OVCAR-3 ovarian) [µM] | TGI (SK-MEL-2 melanoma) [µM] | TGI (SW-620 colon) [µM] | TGI (M14 melanoma) [µM] | TGI (HCC-2998 colon) [µM] | TGI (UACC-257 melanoma) [µM] | GI50 (IGROV1 ovarian) [µM] | GI50 (OVCAR-3 ovarian) [µM] | GI50 (SK-MEL-2 melanoma) [µM] | GI50 (SW-620 colon) [µM] | GI50 (M14 melanoma) [µM] | GI50 (HCC-2998 colon) [µM] | GI50 (SK-OV-3 ovarian) [µM] | GI50 (SF-295 CNS) [µM]
Cc1nnc2n(c1=O)CCN2C | > 100 | > 100 | > 100 | > 100 | > 100 | > 100 | > 100 | > 100 | > 100 | > 100 |  |  |  |  |  |  |  |  | 
O=c1[nH]c(=O)n(COCCO)c2ccsc12 | > 100 | > 100 |  | > 100 | > 100 | > 100 | > 100 | > 100 | > 100 | > 100 | > 100 |  |  |  |  |  |  |  | 
NC(Cc1c[nH]c2cc([N+](=O)[O-])ccc12)C(=O)O (configuration not stated) | > 100 | > 100 | > 100 | > 100 | > 100 | > 100 | > 100 | > 100 | > 100 |  | > 100 |  |  |  |  |  |  |  | 
CCOc1ccc(N=NC2C(=O)N(C(=O)CC(=O)Nc3ccccc3)N=C2C)cc1 (configuration not stated) | > 100 | > 100 |  | > 100 | > 100 | > 100 | > 100 | > 100 | > 100 | > 100 | > 100 |  |  |  |  |  |  |  | 
COc1cc(C2C(Cl)C(=O)N2NC(=O)c2ccc(NC(C)=O)cc2)ccc1O (configuration not stated) | > 100 | > 100 | > 100 | > 100 | > 100 | > 100 | > 100 | > 100 | > 100 |  | > 100 |  |  |  |  |  |  |  | 
CC1(C)CC2(C)CC1CC2(O)c1ccccc1 (configuration not stated) | > 100 | > 100 | > 100 | > 100 | > 100 | > 100 |  | > 100 | > 100 |  | > 100 |  |  |  |  |  |  |  | 
O=[N+]([O-])c1ccc2oc(=Nc3ccccc3)c(Nc3ccccc3)nc2c1 | > 100 | > 100 | > 100 | 76.6 | > 100 |  | > 100 | > 100 |  | > 100 | > 100 |  |  |  |  |  |  |  | 
Oc1ccccc1C1C=C(c2ccccc2)NC(N2CCCCC2)=C1c1nc2ccccc2[nH]1 (configuration not stated) | 27.8 | 47.7 | 26.4 | 25.7 | 29.2 | 29.8 |  | 30.5 | 25.9 | 10.8 | 30.7 |  |  |  |  |  |  |  | 
COC(=O)CCc1c(Cc2ccc[nH]2)[nH]c(C(=O)OCc2ccccc2)c1C | 31.4 | 70.6 | > 100 | 31.4 | 53.3 | 31 | 33.7 | 45.7 | 30.4 |  | 38.9 |  |  |  |  |  |  |  | 
CC(C)CC(NC(=O)OC(C)(C)C)C(=O)NC(CC(=O)OCc1ccccc1)C(=O)OCc1ccccc1 (stereo not drawn) (Boc-Leu-Asp(OBn)-OBn; configuration not given here) |  |  | > 100 | 49.6 | > 100 | 49.6 | > 100 | > 100 | 38.6 | 56.8 | > 100 |  |  |  |  |  |  |  | 
N=C(N)SCCC(=O)CCSC(=N)N |  | > 100 | > 100 |  | > 100 | > 100 |  | > 100 | > 100 | > 100 | > 100 |  |  |  |  |  |  |  | 
COc1ccc(C2OCCN2C)cc1 (configuration not stated) | > 100 | > 100 | > 100 | > 100 | > 100 | > 100 | > 100 | > 100 | > 100 |  | > 100 |  |  |  |  |  |  |  | 
N#C/C(=C\c1ccc([N+](=O)[O-])s1)c1nc2cc(Cl)ccc2s1 | 4.52 |  |  |  |  | 3.23 | 3.7 | 2.09 | 1.68 | 6.8 |  | 0.94 | 1.42 | 1.25 | 0.354 | 0.382 | 2.31 |  | 
COc1ccc(C(Cc2ccccc2)C2NC(=S)NC2=O)cc1 (configuration not stated) | > 25 | > 25 | > 25 | > 25 | > 25 | > 25 | > 25 | > 25 | > 25 |  | > 25 |  |  |  |  |  |  |  | 
C=C(C)C1CC/C(C)=C/CC[C@]2(C)O[C@@H]2CCC2=CC1OC2=O (some centres not stated) | > 100 |  | > 100 |  | > 100 |  | > 100 |  | > 100 | > 100 |  | 50.4 |  | 57.5 |  | 37.2 | 80 | > 100 | 24
CN(C)CCNC(=O)c1cccc2cc3cc(O)ccc3nc12 | 4.43 |  | 4.27 |  | 3.4 | 3.61 | 3.81 | 3.46 |  | 8.3 | 2.94 |  |  |  |  |  |  |  | 
O=CC(O)C(O)C(O)C1CNC(=S)O1 (configuration not stated) | > 100 | > 100 | > 100 | > 100 | > 100 | > 100 | > 100 | > 100 | > 100 |  | > 100 |  |  |  |  |  |  |  | 
Nc1ccc(Nc2cc(=O)[nH]c(=O)[nH]2)cc1 | > 100 | > 100 | > 100 | > 100 | > 100 | > 100 |  | > 100 |  | > 100 | > 100 |  |  |  |  |  |  |  | 
O=Nn1c2ccccc2c2cc([N+](=O)[O-])ccc21 | 30.2 | 29.3 | 30.1 |  | 28.5 | 33.6 | 96.8 | 59.7 | 47.9 | > 100 | 56.5 |  |  |  |  |  |  |  | 
O=NN(CCF)C(=O)NC1CC2CCC1C2 (configuration not stated) | > 100 |  | > 100 |  | > 100 | > 100 | > 100 | > 100 |  | > 100 | > 100 |  |  |  |  |  |  |  | 
O=c1c2ccccc2nc(-c2ccccc2)n1NC(=S)Nc1ccc(Cl)cc1 | > 100 | > 100 | > 100 | > 100 | > 100 |  | > 100 | > 100 | > 100 |  | > 100 |  |  |  |  |  |  |  | 
CN(C)c1ccc(/C=C/C(=O)N[C@@H]2C(=O)N3[C@@H]2SC(C)(C)[C@@H]3C(=O)O)cc1 |  | > 100 |  | > 100 | > 100 | > 100 | > 100 | > 100 | > 100 | > 100 | > 100 |  |  |  |  |  |  |  | 
